Measured values taken from US9226916B2, “Pyrrolidine derivatives” (HOFFMANN-LA ROCHE INC., priority 2009, dated 2016).

What follows are compounds tested against T1, recombinant human NK3 receptor (Homo sapiens, UniProt P29371) (assay: [3H]SR142801 competition binding assay). Details: not given.
T1 construct: expressed in transfected cells; host or cells: HEK293 cells, transient expression; membranes
T1 sequence (P29371 1-465): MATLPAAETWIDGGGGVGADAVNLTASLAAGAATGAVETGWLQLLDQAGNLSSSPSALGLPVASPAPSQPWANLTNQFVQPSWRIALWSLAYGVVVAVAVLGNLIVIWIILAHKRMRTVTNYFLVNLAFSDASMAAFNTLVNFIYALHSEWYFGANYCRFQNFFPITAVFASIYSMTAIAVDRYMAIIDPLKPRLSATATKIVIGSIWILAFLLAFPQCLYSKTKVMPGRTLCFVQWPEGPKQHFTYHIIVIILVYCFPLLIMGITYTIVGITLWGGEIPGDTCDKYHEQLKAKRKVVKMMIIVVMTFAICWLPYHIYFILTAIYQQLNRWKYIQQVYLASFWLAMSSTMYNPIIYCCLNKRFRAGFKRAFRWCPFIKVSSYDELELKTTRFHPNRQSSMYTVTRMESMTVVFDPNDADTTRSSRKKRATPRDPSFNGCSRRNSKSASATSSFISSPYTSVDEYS

First: CN(C(=O)Oc1ccc(Cl)cc1)[C@H]1CN(C(=O)C2CCN(CC3CC3)CC2)C[C@@H]1c1ccc(Cl)c(Cl)c1 (racemic) [Example 10, rac-[(3R,4S)-1-(1-Cyclopropylmethyl-piperidine-4-carbonyl)-4-(3,4-dichloro-phenyl)-pyrrolidin-3-yl]-methyl-carbamic acid 4-chloro-phenyl ester]
Second: CN(C(=O)Oc1ccc(F)cc1)[C@@H]1CN(C(=O)C2CCN(C(=O)C3(C(F)(F)F)CC3)CC2)C[C@H]1c1ccc(Cl)c(Cl)c1 [Example 273, {(3S,4R)-4-(3,4-Dichloro-phenyl)-1-[1-(1-trifluoromethyl-cyclopropanecarbonyl)-piperidine-4-carbonyl]-pyrrolidin-3-yl}-methyl-carbamic acid 4-fluoro-phenyl ester]
The Ki of the first is 3.8-fold higher: 1.5 nM for the first, 0.4 nM for the second.

Compared with `CN(C(=O)Oc1ccccc1Cl)[C@@H]1CN(C(=O)C2CCN(c3ccc(C#N)cn3)CC2)C[C@H]1c1ccc(Cl)cc1` [Example 213, [(3S,4R)-4-(4-Chloro-phenyl)-1-(5′-cyano-3,4,5,6-tetrahydro-2H-[1,2′]bipyridinyl-4-carbonyl)-pyrrolidin-3-yl]-methyl-carbamic acid 2-chloro-phenyl ester], `CN(C(=O)Oc1ccc(F)cc1F)[C@@H]1CN(C(=O)C2CCN(c3ccc(C#N)cn3)CC2)C[C@H]1c1ccc(Cl)cc1` [Example 208, [(3S,4R)-4-(4-Chloro-phenyl)-1-(5′-cyano-3,4,5,6-tetrahydro-2H-[1,2′]bipyridinyl-4-carbonyl)-pyrrolidin-3-yl]-methyl-carbamic acid 2,4-difluoro-phenyl ester] is 18-fold lower in Ki: 7.2 nM for the first, 0.4 nM for the second. The second binds more tightly here.

Going from `CN(C(=O)Oc1ccc(F)cc1)[C@@H]1CN(C(=O)C2CCNC2)C[C@H]1c1ccc(Cl)cc1` (stereo partly drawn) [Example 168, [(3S,4R)-4-(4-Chloro-phenyl)-1-(pyrrolidine-3-carbonyl)-pyrrolidin-3-yl]-methyl-carbamic acid 4-fluoro-phenyl ester] to `COCC(=O)N1CCC(C(=O)N2C[C@@H](N(C)C(=O)Oc3ccc(F)cc3)[C@H](c3ccc(Cl)cc3)C2)C1` (stereo partly drawn) [Example 172, {(3S,4R)-4-(4-Chloro-phenyl)-1-[1-(2-methoxy-acetyl)-pyrrolidine-3-carbonyl]-pyrrolidin-3-yl}-methyl-carbamic acid 4-fluoro-phenyl ester], the Ki falls from 98.4 nM to 4.1 nM (24-fold). The second binds more tightly here.

Going from `CCCCOC(=O)N(C)[C@H]1CN(C(=O)C2CCN(C(=O)C3(C)CC3)CC2)C[C@@H]1c1ccc(Cl)cc1` (racemic) [Example 27, rac-{(3R,4S)-4-(4-Chloro-phenyl)-1-[1-(1-methyl-cyclopropanecarbonyl)-piperidine-4-carbonyl]-pyrrolidin-3-yl}-methyl-carbamic acid butyl ester] to `COCC1(C(=O)N2CCC(C(=O)N3C[C@@H](N(C)C(=O)Oc4ccc(F)cc4)[C@H](c4ccc(Cl)cc4)C3)CC2)CC1` [Example 259, {(3S,4R)-4-(4-Chloro-phenyl)-1-[1-(1-methoxymethyl-cyclopropanecarbonyl)-piperidine-4-carbonyl]-pyrrolidin-3-yl}-methyl-carbamic acid 4-fluoro-phenyl ester], the Ki falls from 30.7 nM to 3.8 nM (8.1-fold). The second binds more tightly here.

Same assay, conditions: hNK-3 receptor affinity; membranes from HEK293 cells transiently expressing recombinant human NK3 receptor; [3H]SR142801; Cheng-Prussoff; read-out: Data Ki

Compared with `CN(C(=O)OCCC1CC1)[C@@H]1CN(C(=O)C2CCN(C(=O)C3(C)CC3)CC2)C[C@H]1c1ccc(Cl)c(Cl)c1` [Example 36, {(3S,4R)-4-(3,4-Dichloro-phenyl)-1-[1-(1-methyl-cyclopropanecarbonyl)-piperidine-4-arbonyl]-pyrrolidin-3-yl}-methyl-carbamic acid 2-cyclopropyl-ethyl ester], `CN(C(=O)OCC1(C)COC1)[C@@H]1CN(C(=O)C2CCN(c3ccc(C#N)cn3)CC2)C[C@H]1c1ccc(Cl)cc1` [Example 218, [(3S,4R)-4-(4-Chloro-phenyl)-1-(5′-cyano-3,4,5,6-tetrahydro-2H-[1,2′]bipyridinyl-4-carbonyl)-pyrrolidin-3-yl]-methyl-carbamic acid 3-methyl-oxetan-3-ylmethyl ester] is 1.7-fold lower in Ki: 33 nM for the first, 19.5 nM for the second. The second binds more tightly here.
